Experimental data: patent publication US20240248101A1 (The United States of America, as represented by the …, priority 2021, published 2024)
Several values for one entry are separate records, joined by “and”; a condition that tells them apart may be missing. Identical values can stand only once.

Assays:
[1] = Plasma and urine vitamin C in gulo-/- mice given vitamin C in drinking water; assay type: in vivo, mouse; details: gulo-/- mice of both sexes, vitamin C 0 to 5000 mg/L in drinking water
Method: Values represent means+/−SDs. All mice were maintained at each dose for one week before blood and urine sampling.
Animal experiments were approved by the Animal Care and Use Committee NIDDK, NIH, and were conducted in accordance with NIH guidelines. Mice were 10-14-week-old males and females with free access to food and water and were maintained on a regular chow diet (NIH-07) without detectable ascorbate (detection limit 10 nM). Mice type were gulo^−/− and SVCT1^−/−. […] To maintain the mice, vitamin C was provided via drinking water, which was changed daily.
Plasma and RBCs were from mouse whole blood as described. Urine was collected at the same time as the blood by gentle abdominal pressure.
Blood and urine samples were collected on ice and processed promptly. All samples were stored at −80 C and assayed together by HPLC as previously described.

[2] = Vitamin C renal leak study in men with Fabry disease and healthy male controls (matched fasting plasma and 1 h urine); assay type: in vivo, human; details: for median fractional excretion of vitamin C (FeVC): all subjects
Description: Study design: This was a non-randomized cross-sectional cohort study aimed at investigating the prevalence and clinical characteristics of vitamin C renal leak in men with Fabry disease and healthy male controls. The protocols were approved by the Institutional Review Boards of NINDS and NIDDK, NIH.
Participants: Men with Fabry disease who were actively participating in NIH protocols evaluating the open label use of enzyme replacement therapy (ERT) in Fabry disease (95-N-0121, 00-N-0185 and 02-N-0220), ClinicalTrials.gov Identifiers: NCT00001491 and NCT00068107) were recruited. The male predominance in Fabry disease is based on the X-linked inheritance pattern. Accordingly, healthy men aged 18-58 were recruited on a rolling basis as controls for the Fabry cohort, under NIH protocol 04-DK-0021 (arm 3). Exclusion criteria included acute or chronic illness, alcohol abuse or tobacco use.
Matched urine and plasma vitamin C measurements: Following an overnight fast, on the morning of study, subjects were instructed to empty their bladder. […] Following the initial spot urine collection, subjects were hospitalized for another 24 hours. They consumed a hospital diet free of supplements or foods items with no or low vitamin C content. On morning of day 2, collection of all voided urine for 24 hours (termed 24 h urine) was obtained and subjects were discharged home.
Primary endpoint was the prevalence of vitamin C renal leak in the Fabry's cohort compared with healthy controls. Renal leak status (leak vs no leak) was determined using criteria described in depletion-repletion studies above. […] To address this limitation, renal leak was also expressed as fractional excretion of vitamin C (FeVC) defined as follows: […]
Following an overnight fast, on the morning of study, subjects were instructed to empty their bladder. […] Subjects could watch TV, read, take naps, or rest in any other way they choose. […]

[3] = Vitamin C depletion-repletion pharmacokinetic study: renal threshold and minimal elimination threshold (PBPK and PCF modelling); assay type: in vivo, human; details: for vitamin C renal threshold, Population Curve Fitting (PCF): population estimate
Method: Renal threshold was estimated using physiology-based pharmacokinetics modeling. […] Mice knockout models were used for proof-of-concept studies. Vitamin C was measured using coulometric electrochemical detection with high performance liquid chromatography.
Pharmacokinetics components of depletion-repletion study design have been described previously (see supplementary methods). The protocol was approved by the Institutional Review Board, National Institutes of Diabetes and Digestive and Kidney diseases (NIDDK), National Institutes of Health (NIH).
Participants, Interventions: Healthy men and women aged 18 to 35 years without any acute or chronic medical conditions. Details on eligibility and study interventions are described in supplementary methods.
Full details regarding studying outcomes and analyses are provided in supplementary methods. […] Each subject had 5-7 oral and intravenous pharmacokinetic studies over a 13-fold or greater dose range. Data from the NIH depletion study in men and women were used to estimate the vitamin C renal threshold by two different methods: physiology-based pharmacokinetics modeling (PBPK), and population curve fitting with empirical functions (PCF). […] Based on data from healthy men, this model facilitated description of pharmacokinetics-time profiles of vitamin C in plasma, urine, and tissues simultaneously. Goodness of fit analyses support the use of this model to data from healthy women. For population curve fitting (PCF), plasma and urine values were analyzed using nonlinear mixed-effect modeling. PCF fits empirical functions to data from all subjects of each sex to estimate the renal threshold for that population of men and women. Using PBPK analyses, minimal elimination threshold (MET) was defined as that plasma concentration 2 standard deviations below the mean renal threshold for men and for women based on guidelines for estimating dietary reference intakes. […] (see supplementary methods).
Because urine samples collected at variable intervals were not synchronized with plasma samples, the time at which vitamin C first appears in the urine or when vitamin C urinary elimination became zero could not be determined from raw data alone. […] Using the data from the NIH depletion repletion study, vitamin C renal threshold was estimated by two different methods: Physiology-Based Pharmacokinetics model (PBPK) and population curve fitting (PCF).
Goodness of fit analysis support the use of the pharmacokinetics model to data collected from 15 normal women. […] When the amount of filtered vitamin C exceeds renal tubular reabsorptive capacity, vitamin C appears in the urine. The point at which renal threshold is reached (when filtration and reabsorption are in equilibrium) can be represented as
The Cplasma that fulfill the above equation is the plasma concentration threshold (renal threshold). At which time, the rate of vitamin C dispense into the tubule equals zero. The equation 2 can be rearranged as
Different non-parametric empirical functions were explored to best describe the combined urine data versus plasma vitamin C value of all subjects. After the structure function (model) was selected using goodness-of-fit assessments, plasma and urine data analyses were finalized using Nonlinear Mixed-Effect (MLME) modeling for population fit with S-Plus for Windows (version 8, Insightful Corp. Seattle, WA) to estimate the parameters account for inter-subject variabilities.
A Michealis-Menten equation (equation 4) was selected and fitted to data to estimate the parameters Vm and KM (maximum rate and Michaelis constant, respectively).
Initial estimate of Vm and KM were obtained by inspecting data plots. Goodness-of-fit was checked by visually inspecting the distribution of Standardized Residuals. If the goodness of fit was not acceptable, the initial parameters (Vm and KM) were changed and the resulting plot inspected again for distribution of residuals. […]

[4] = Vitamin C renal leak study in diabetic cohort, nondiabetic controls and healthy subgroup (matched fasting plasma and 1 h urine); assay type: in vivo, human; details: for Plasma Vitamin C Concentration (mean): fasting
Method: Vitamin C in plasma and urine was measured using coulometric electrochemical detection with high performance liquid chromatography.
Study design: This was a non-randomized cross-sectional cohort outpatient study aimed at investigating the prevalence and clinical characteristics of vitamin C renal leak in a cohort of individuals with diabetes and non-diabetic controls. The protocol was approved by the Institutional Review Boards of NIDDK, NIH.
Participants and Recruitment: The study included a cohort of diabetic and non-diabetic individuals aged 18-65, without known acute or chronic medical conditions other than complications of diabetes mellitus or metabolic syndrome. Exclusion criteria included presence of an acute or chronic illness, alcohol abuse or tobacco use and pregnancy.
Subjects were also instructed to avoid food or drinks (other than water and medications) after midnight, prior to study sampling day. On morning of study sampling, subjects were admitted to the NIH CRC's metabolic unit as outpatients. They were instructed to empty their bladder. […] Subjects were subsequently provided with a meal and discharged home.
Study Groups and Comparators for Analyses: Three groups of participants who met the inclusion and exclusion criteria were used for data analyses: diabetic cohort, nondiabetic control group and healthy subgroup. The diabetic cohort was comprised of men and women with type 1 or type 2 diabetes. The nondiabetic control group was made up of individuals without diabetes and were not taking any chronic medications. To investigate unknown factors associated with renal leak, related and unrelated to diabetes, the study exclusion criteria was non-restrictive to recruit a broad sampling of the population. Thus, the nondiabetic control group included asymptomatic subjects with abnormal laboratory values which not determined to be clinically significant during the screening evaluation. However, inclusion of individuals with abnormal laboratory values in the non-diabetic control group could confound study findings. To address this concern, a post-hoc healthy subgroup of the nondiabetic control group without abnormal laboratory findings was identified. Primary comparative analysis was between the diabetic group vs nondiabetic control group. The diabetic group was secondarily compared with the healthy subgroup to assess for discordant findings.
This binary criterion is a qualitative measure indicating the presence or absence of a renal leak in a subject. The prevalence of renal leak was calculated as the proportion of leakers in each population cohort.
FeVC is a quantitative measure that describes the degree and magnitude of a renal leak. The formula for calculating FeVC is shown below: […]
Sample collection and vitamin C assay: Urine and plasma vitamin C were analyzed by HPLC with coulometric electrochemical detection. Other blood and urine chemistry measurements were performed, using standard laboratory methods, by the department of laboratory medicine Clinical Laboratory Improvement Amendments (CLIA) identification number: 21D0665373, Clinical Research Center, National Institutes of Health.

O=C1O[C@H]([C@@H](O)CO)C(O)=C1O [vitamin C]
plasma vitamin C concentration below which no vitamin C was found in urine (renal threshold) [1]: 55 µM | mean plasma vitamin C concentration ([2]; Fabry cohort and healthy controls after 3-week low vitamin C diet, order of cohorts not stated): 38.9 µM and 36.5 µM | median fractional excretion of vitamin C (FeVC) ([2]; healthy male controls): 0 | median fractional excretion of vitamin C (FeVC) ([2]; men with Fabry disease): 0.018 | Minimal Elimination Threshold (MET), 2SD below mean renal threshold using PBPK ([3]; healthy men): 38.1 µM | vitamin C renal threshold, Pharmacokinetic Modeling (PBPK), individual estimates ([3]; healthy men, individual subjects M1-M7, plasma concentration at which vitamin C first appears in urine): 52 μM and 51 μM and 40 μM and 56 μM and 45 μM (2×) and 50 μM | vitamin C renal threshold, PBPK, Mean (SD) ([3]; healthy men, n = 7): 48.5(5.2) μM | vitamin C renal threshold, PBPK, Mean (SD) ([3]; healthy men, n = 7, listed as Vitamin C): 48.5 μM and 48.5 (5.2) μM | vitamin C renal threshold, Population Curve Fitting (PCF) ([3]; healthy men): 48.3 µM and 48.28 µM | vitamin C renal threshold, Population Curve Fitting (PCF) ([3]; healthy men, listed as Vitamin C): 48.3 µM | Minimal Elimination Threshold (MET), 2SD below mean renal threshold using PBPK ([3]; healthy women): 43.2 µM | vitamin C renal threshold, Pharmacokinetic Modeling (PBPK), individual estimates ([3]; healthy women, individual subjects W1-W10): 54 μM (3×) and 67 μM and 57 μM and 64 μM and 63 μM and 45 μM and 70 μM and 55 μM | vitamin C renal threshold, PBPK, Mean (SD) ([3]; healthy women, n = 10): 58.3(7.5) μM | vitamin C renal threshold, PBPK, Mean (SD) ([3]; healthy women, n = 10, listed as Vitamin C): 58.3 μM and 58.3 (7.5) μM | vitamin C renal threshold, Population Curve Fitting (PCF) ([3]; healthy women): 60.4 µM and 60.39 µM | vitamin C renal threshold, Population Curve Fitting (PCF) ([3]; healthy women, listed as Vitamin C): 60.4 µM | Median FeVC ([4]; Diabetic Cohort, All Subjects): 0.00032 | Median FeVC ([4]; Diabetic Cohort, Plasma Vit C < MET): 0.00015 | Median FeVC ([4]; Diabetic Cohort, Plasma Vit C ≥ MET): 0.0012 and 0.00122 | Plasma Vitamin C Concentration (mean) ([4]; Diabetic Cohort, table part adjusted for sex/gender): 40.9 µM | Plasma Vitamin C Concentration (mean) ([4]; Diabetic Cohort, un-adjusted for sex/gender): 40.9 µM | Median FeVC ([4]; Healthy Subgroup, All Subjects): 0.00046 | Median FeVC ([4]; Healthy Subgroup, Plasma Vit C < MET): 0 | Median FeVC ([4]; Healthy Subgroup, Plasma Vit C ≥ MET): 0.00046 | Plasma Vitamin C Concentration (mean) ([4]; Healthy Subgroup, table part adjusted for sex/gender): 57.1 µM | Plasma Vitamin C Concentration (mean) ([4]; Healthy Subgroup, un-adjusted for sex/gender): 57.1 µM | Median FeVC ([4]; Non-Diabetic Control, All Subjects): 0.00044 | Median FeVC ([4]; Non-Diabetic Control, Plasma Vit C < MET): 0.0000 | Median FeVC ([4]; Non-Diabetic Control, Plasma Vit C ≥ MET): 0.0010 | Plasma Vitamin C Concentration (mean) ([4]; Non-Diabetic Control, table part adjusted for sex/gender): 53.1 µM | Plasma Vitamin C Concentration (mean) ([4]; Non-Diabetic Control, un-adjusted for sex/gender): 53.1 µM
